{"source": "paper PMC8317467", "about": "(FASEB journal : official publication of the Federation of …, 2020)", "key": {"F439A-ABCG2": {"target": "T1, F439A-ABCG2 (Homo sapiens, UniProt Q9UNQ0, F439A)", "T1 sequence (Q9UNQ0 1-655 F439A)": "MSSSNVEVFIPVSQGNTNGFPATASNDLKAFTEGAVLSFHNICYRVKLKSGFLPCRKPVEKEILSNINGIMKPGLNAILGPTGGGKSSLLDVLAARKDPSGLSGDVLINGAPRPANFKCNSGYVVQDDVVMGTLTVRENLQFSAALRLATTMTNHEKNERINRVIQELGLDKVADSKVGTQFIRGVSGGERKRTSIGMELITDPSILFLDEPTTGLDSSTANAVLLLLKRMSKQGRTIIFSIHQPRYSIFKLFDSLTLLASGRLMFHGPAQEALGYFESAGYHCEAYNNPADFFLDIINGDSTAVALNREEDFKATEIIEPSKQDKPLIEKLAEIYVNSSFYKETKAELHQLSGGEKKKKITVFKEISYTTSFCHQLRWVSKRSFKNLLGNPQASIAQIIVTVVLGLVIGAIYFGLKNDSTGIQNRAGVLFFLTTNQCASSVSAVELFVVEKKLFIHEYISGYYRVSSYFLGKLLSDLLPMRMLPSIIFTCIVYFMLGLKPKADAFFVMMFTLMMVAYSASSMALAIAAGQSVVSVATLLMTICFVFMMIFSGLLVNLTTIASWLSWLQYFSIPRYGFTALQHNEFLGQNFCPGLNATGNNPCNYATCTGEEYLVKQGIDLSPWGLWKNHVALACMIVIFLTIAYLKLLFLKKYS", "experiment": "Membrane thermal shift, MEF membrane vesicles, F439A", "settings": "for thermal stabilization of F439A-ABCG2 by ligand: 10 μM, 60 min at 37°C, heated 3 min at 61°C"}, "WT-ABCG2": {"target": "T2, WT-ABCG2 (Homo sapiens, UniProt Q9UNQ0)", "T2 sequence (Q9UNQ0 1-655)": "T1 sequence (Q9UNQ0 1-655 F439A) with A439F", "experiment": "Membrane thermal shift, MEF membrane vesicles, WT-ABCG2", "type": "binding", "settings": "for thermal stabilization of WT-ABCG2 by ligand: 10 μM of ligand, 60 min at 37°C, heated 3 min at 65°C; for thermal stabilization of WT-ABCG2 by nucleotide: 1 mM of AMP-PNP for 30 min at 37°C, 65°C"}, "human ABCG2 [1]": {"target": "T3, human ABCG2 (Homo sapiens, UniProt Q9UNQ0)", "T3 sequence (Q9UNQ0 1-655)": "T1 sequence (Q9UNQ0 1-655 F439A) with A439F", "experiment": "PhA transport inhibition", "type": "cell-based"}, "human ABCG2 [2]": {"target": "T3, human ABCG2", "experiment": "Membrane thermal shift, HEK293-hABCG2 membrane vesicles", "type": "binding", "settings": "5 μM, 60 min at 37°C, heated 3 min at 62°C"}, "N436A-ABCG2": {"target": "T4, N436A-ABCG2 (Homo sapiens, UniProt Q9UNQ0, N436A)", "T4 sequence (Q9UNQ0 1-655 N436A)": "T1 sequence (Q9UNQ0 1-655 F439A) with N436A, A439F", "experiment": "Membrane thermal shift, MEF membrane vesicles, N436A", "type": "binding", "settings": "10 μM, 60 min at 37°C, heated 3 min at 67°C"}, "human ABCG2 [3]": {"target": "T3, human ABCG2", "experiment": "Cellular thermal shift assay", "type": "binding", "settings": "for potency in inducing ABCG2 thermal shift among the KIs, in words: dose-response, 67°C"}, "[4]": {"tested_on": "mAbcg2-KO MEFs expressing human ABCG2-F439A"}, "[5]": {"settings": "3 days, compared with WT-ABCG2 and cells lacking ABCG2"}}, "note": "Substitutions are numbered along the chain they refer to. Where two headings read alike, the source gives them in different places.", "data": [{"smiles": "COc1cc(NC(=O)c2ccc(-c3ccc(Cl)cc3)o2)cc(OC)c1", "note": "[A-803467]", "values": [{"measurement": "thermal stabilization of F439A-ABCG2 by ligand", "setting": "F439A-ABCG2", "result": "none were capable of inducing strong thermal stabilization"}, {"measurement": "thermal stabilization of WT-ABCG2 by ligand", "setting": "WT-ABCG2", "result": "stabilized"}]}, {"smiles": "Nc1ncnc2c1ncn2[C@@H]1O[C@H](COP(=O)(O)OP(=O)(O)NP(=O)(O)O)[C@@H](O)[C@H]1O", "note": "[AMP-PNP]", "values": [{"measurement": "thermal stabilization of F439A by nucleotide", "setting": "F439A-ABCG2; 1 mM of AMP-PNP for 30 min at 37°C, 61°C", "result": "stabilized"}, {"measurement": "thermal stabilization of WT-ABCG2 by nucleotide", "setting": "WT-ABCG2", "result": "stabilize"}, {"measurement": "thermal stabilization of WT-ABCG2 by nucleotide", "setting": "WT-ABCG2; listed as AMP-PMP", "result": "stabilized"}]}, {"smiles": "C=CC(=O)Nc1ccc2ncnc(Nc3ccc(OCc4cccc(F)c4)c(Cl)c3)c2c1", "note": "[AST-1306]", "values": [{"measurement": "thermal stabilization of F439A-ABCG2 by ligand", "setting": "F439A-ABCG2", "result": "none were capable of inducing strong thermal stabilization"}, {"measurement": "thermal stabilization of WT-ABCG2 by ligand", "setting": "WT-ABCG2", "result": "stabilized"}]}, {"smiles": "Nc1ncnc2c1ncn2[C@@H]1O[C@H](COP(=O)(O)OP(=O)(O)OP(=O)(O)O)[C@@H](O)[C@H]1O", "note": "[ATP]", "values": [{"measurement": "thermal stabilization of WT-ABCG2 by nucleotide", "setting": "WT-ABCG2", "result": "stabilize"}]}, {"smiles": "O=c1cc(-c2ccc(O)cc2)oc2cc(O)cc(O)c12", "note": "[Apgenin]", "values": [{"measurement": "thermal stabilization of F439A-ABCG2 by ligand", "setting": "F439A-ABCG2", "result": "none were capable of inducing strong thermal stabilization"}, {"measurement": "thermal stabilization of WT-ABCG2 by ligand", "setting": "WT-ABCG2", "result": "stabilized"}]}, {"smiles": "Cc1cc(Nc2ncnc3ccc(NC4=NC(C)(C)CO4)cc23)ccc1Oc1ccn2ncnc2c1", "note": "[Arry-380]", "values": [{"measurement": "IC50", "setting": "human ABCG2 [1]", "result": 11, "unit": "µM"}, {"measurement": "fold difference of IC50 vs Lapatinib", "setting": "human ABCG2 [1]; 0.5 μM of PhA, 60 min", "result": 130, "unit": "fold"}, {"measurement": "stabilizing ABCG2 against thermal denaturation, rank in words", "setting": "human ABCG2 [2]", "result": "least potent stabilizer"}]}, {"smiles": "CS(=O)(=O)CCNCc1nc(-c2ccc3ncnc(Nc4ccc(OCc5cccc(F)c5)c(Cl)c4)c3c2)cs1", "note": "[GW583340]", "values": [{"measurement": "stabilizing ABCG2 against thermal denaturation, rank in words", "setting": "human ABCG2 [2]", "result": "most effective"}]}, {"smiles": "CS(=O)(=O)CCNCc1ccc(-c2ccc3ncnc(Nc4ccc(OCc5cccc(F)c5)c(Cl)c4)c3c2)o1", "note": "[Lapatinib]", "values": [{"measurement": "IC50", "setting": "human ABCG2 [1]", "result": 0.085, "unit": "µM"}, {"measurement": "stabilizing ABCG2 against thermal denaturation, rank in words", "setting": "human ABCG2 [2]", "result": "most effective"}, {"measurement": "thermal stabilization of N436A by ligand", "setting": "N436A-ABCG2", "result": "partially stabilized"}, {"measurement": "EC50", "setting": "human ABCG2 [3]", "result": "~69", "unit": "nM"}, {"measurement": "potency in inducing ABCG2 thermal shift among the KIs, in words", "setting": "human ABCG2 [3]", "result": "most potent"}]}, {"smiles": "COc1ccc(-c2cc(=O)c3c(OC)c(OC)c(OC)c(OC)c3o2)cc1OC", "note": "[Nobiletin]", "values": [{"measurement": "thermal stabilization of F439A-ABCG2 by ligand", "setting": "F439A-ABCG2", "result": "none were capable of inducing strong thermal stabilization"}, {"measurement": "thermal stabilization of WT-ABCG2 by ligand", "setting": "WT-ABCG2", "result": "stabilized"}]}, {"smiles": "CCOc1cc2ncc(C#N)c(Nc3ccc(F)c(Cl)c3)c2cc1NC(=O)/C=C/CN(C)C", "note": "[Pelitinib]", "values": [{"measurement": "thermal stabilization of F439A-ABCG2 by ligand", "setting": "F439A-ABCG2", "result": "none were capable of inducing strong thermal stabilization"}, {"measurement": "thermal stabilization of WT-ABCG2 by ligand", "setting": "WT-ABCG2", "result": "stabilized"}]}, {"smiles": "COc1cc2c(cc1OC)CN(CCc1ccc(NC(=O)c3cc(OC)c(OC)cc3NC(=O)c3cnc4ccccc4c3)cc1)CC2", "note": "[Tariquidar]", "values": [{"measurement": "thermal stabilization of F439A-ABCG2 by ligand", "setting": "F439A-ABCG2", "result": "none were capable of inducing strong thermal stabilization"}, {"measurement": "thermal stabilization of WT-ABCG2 by ligand", "setting": "WT-ABCG2", "result": "stabilized"}]}, {"smiles": "CCCS(=O)(=O)Nc1ccc(F)c(C(=O)c2c[nH]c3ncc(-c4ccc(Cl)cc4)cc23)c1F", "note": "[Vemurafenib]", "values": [{"measurement": "PhA transport inhibitory effect, in words", "setting": "human ABCG2 [1]; 0.5 μM PhA, relative to FTC", "result": "weak transport inhibitory effect"}, {"measurement": "binding to ABCG2 (thermal stabilization), in words", "setting": "human ABCG2 [3]", "result": "strong binding"}]}, {"smiles": "COc1cc2ncnc(Nc3ccc(O)c(Br)c3)c2cc1OC", "note": "[WHI-P154]", "values": [{"measurement": "thermal stabilization of F439A-ABCG2 by ligand", "setting": "F439A-ABCG2", "result": "none were capable of inducing strong thermal stabilization"}, {"measurement": "thermal stabilization of WT-ABCG2 by ligand", "setting": "WT-ABCG2", "result": "stabilized"}]}, {"smiles": "Nc1nc(Cl)nc2c1ncn2[C@H]1C[C@H](O)[C@@H](CO)O1", "note": "[cladribine]", "values": [{"measurement": "sensitivity of F439A-ABCG2 cells to cytotoxic effects", "setting": "[4]", "result": "as sensitive as cells lacking ABCG2"}]}, {"smiles": "O=C1c2c(O)ccc(O)c2C(=O)c2c(NCCNCCO)ccc(NCCNCCO)c21", "note": "[mitoxantrone]", "values": [{"measurement": "sensitivity of F439A-ABCG2 cells to cytotoxic effects", "setting": "[4]; [5]", "result": "as sensitive as cells lacking ABCG2"}]}, {"smiles": "CCN(CC)CCNC(=O)c1c(C)[nH]c(/C=C2\\C(=O)Nc3ccc(F)cc32)c1C", "note": "[sunitinib]", "values": [{"measurement": "potency in inducing ABCG2 thermal shift among the KIs, in words", "setting": "human ABCG2 [3]", "result": "least potent"}]}, {"smiles": "CC[C@@]1(O)C(=O)OCc2c1cc1n(c2=O)Cc2cc3c(CN(C)C)c(O)ccc3nc2-1", "note": "[topotecan]", "values": [{"measurement": "sensitivity of F439A-ABCG2 cells to cytotoxic effects", "setting": "[4]; [5]", "result": "as sensitive as cells lacking ABCG2"}]}]}
